From patent US7351399B2, “Prodrugs for phosphorus-containing compounds” (Metabasis Therapeutics, Inc., priority 1998, dated 2008)
“Also recorded” adds a separate entry of the source.

How the values were obtained:
[1] = Delivery of parent compound to liver after intraperitoneal 1.3 (Example U); type: in vivo, rat; settings: 1.3 50 mg/kg i.p.
Protocol: Methods: 1.3 was dissolved in DMSO and administered intraperitoneally to fasted rats at a dose of 50 mg/kg. At various time points following drug administration, animals were anesthetized with halothane. The peritoneal cavity was then opened and a blood sample was obtained from the abdominal vena cava and the liver freeze-clamped and excised. Blood and liver samples were processed as described in Example P and analyzed for 6-Amino-9-neopentyl-8-(2-phosphonofuranyl)purine content as described in Example I.
Results: 6-Amino-9-neopentyl-8-(2-phosphonofuranyl)purine was detected both in plasma and liver following 1.3 administration. Peak levels measured at the earliest time point of 1 hour were 5.8 μM in plasma and 5 nmoles/g tissue in liver. 6-Amino-9-neopentyl-8-(2-phosphonofuranyl)purine persisted in plasma and liver for 4 hours (the last time point measured).

[2] = Chemical stability in isotonic saline and phosphate buffer (Example A); type: physicochemical; settings: 100 μM; phosphate buffer pH 7.4; 1 hour; room temperature
Protocol: Methods: Aliquots of a 10 μg/mL solution of 30.1 in isotonic saline and in 100 mM potassium phosphate buffers at pH 3, 7, and 9 were sampled after 1, 2, 5, and 7 days of incubation at room temperature and analyzed by HPLC. A Beckman Ultrasphere C8 column (4.6×150 mm) was employed and eluted with a gradient from 0.1% v/v trifluoroacetic acid to 80% methanol at a flow rate of 1.0 mL/min. Detection was at 254 nm. Using these conditions, the four isomers of 30.1 were readily separated and quantified. 1.3 was incubated at 100 μM in phosphate buffer at pH 7.4 and analyzed by HPLC as described in Example I following 1 hour of incubation at room temperature.
Thus, prodrugs of the invention are stable under a broad pH range.

[3] = Stability in plasma (Example C); settings: 37° C.; 5-8 hours; HPLC
Protocol: Methods: Compounds were incubated in plasma at 37° C., and aliqouts removed at appropriate time points over the course of 5-8 hours. The aliquots were extracted with 1.5 volumes of methanol and clarified by centrifugation. Supernatants were then evaporated to dryness and the residues reconstituted with 100 μL of isoionic saline and then analyzed by reverse phase HPLC.

[4] = tested on: glucose production (gluconeogenesis) in isolated rat hepatocytes; test: Inhibition of glucose production in rat hepatocytes (Example J); type: cell-based; settings: lactate 10 mM / pyruvate 1 mM, 1 hour
Protocol: Select prodrugs of FBPase inhibitors were tested for inhibition of glucose production in isolated rat hepatocytes.
After a 10 minute equilibration period, lactate and pyruvate were added to 10 mM and 1 mM concentrations, respectively. Addition of gluconeogenic substrates was immediately followed by that of appropriate concentrations of test compound. After 1 hour, an aliquot (0.25 ml) was removed, transferred to an Eppendorf tube and centrifuged. The supernatant (50 μl) was then assayed for glucose content using a Glucose Oxidase kit (Sigma Chemical Co.) as per the manufacturer's instructions.
Results: The following table depicts the inhibitory effect on gluconeogenesis for several prodrugs prepared in the Examples.

[5] = Oral bioavailability by urinary excretion method (Example M); type: in vivo; settings: oral gavage 20 or 40 mg/kg parent equivalents; 24 h urine vs i.v. parent ~10 mg/kg; rat
Protocol: The oral bioavailability of prodrugs of a variety of phosphonic acid FBPase inhibitors was estimated by a urinary excretion method in rat.
Prodrugs of FBPase inhibitors were dissolved in 10% ethanol/90% polyethylene glycol (mw 400) and administered by oral gavage at doses of 20 or 40 mg/kg parent compound equivalents to 6-hour fasted, Sprague Dawley rats (220-240 g). The rats were subsequently placed in metabolic cages and urine was collected for 24 hours. The quantity of parent compound excreted into urine was determined by HPLC analysis. An ODS column eluted with a gradient from potassium phosphate buffer, pH 5.5 to acetonitrile was employed for these measurements. Detection was at 310-325 nm. […] Parent compounds were typically dissolved in dimethyl sulfoxide, and administered via the tail vein in animals that were briefly anesthetized with halothane.
Results for the FBPase inhibitor prodrugs were as follows

isolated rat hepatocytes [6] = test: Activation in isolated rat hepatocytes (Example I); settings: 100 μM prodrug; fed rat hepatocytes
Protocol: Methods: Hepatocytes were prepared from fed Sprague-Dawley rats (250-300 g) according to the procedure of Berry and Friend (Berry, M. N., Friend, D. S. J. Cell Biol. 43, 506-520 (1969)) as modified by Groen (Groen, A. K. et al. Eur J. Biochem 122, 87-93 (1982)). Hepatocytes (75 mg wet weight/ml) were incubated in 1 ml Krebs-bicarbonate buffer containing 10 mM glucose, and 1 mg/ml BSA. […] Prodrugs were dissolved in DMSO to yield 10 mM stock solutions, and then diluted into the cell suspension to yield a final concentration of 100 μM. At appropriate time points over the course of one hour, aliquots of the cell suspension were removed and spun through a silicon/mineral oil layer into 10% perchloric acid. The cell extracts in the acid layers were neutralized, and the intracellular prodrug metabolite content analyzed by reverse phase HPLC. An ODS column was used for analysis. It was eluted with a gradient from 10 mM sodium phosphate, pH 5.5 to 75% acetonitrile. Detection was at 310 nm. Peaks on the chromatograms were identified by comparison to the retention times and spectra of standards of prodrug and parent compound.

[7] = Renal excretion of PMEA after intravenous administration (Example Q); settings: i.v.; for Renal excretion of PMEA, of the administered dose: rats, 24 hour urine
Protocol: Rats were subsequently caged in metabolic cages and urine collected over a 24 hour period. Urine samples were extracted with 70% methanol/2% acetic acid, vortexed and clarified by centrifugation. Supernatants were analyzed for PMEA content by reverse phase HPLC. A Beckman Ultrasphere ODS (4.6×150 mm) column was used with a gradient from 20 mM potassium phosphate pH 6.2 to 50% acetonitrile.

[8] = Hepatic PMEA-diphosphate and plasma PMEA after intravenous administration (Example P); type: in vivo, rat; settings: 10 mg/kg PMEA equivalents i.v.; fasted rats
Protocol: Methods. […] At appropriate time points, blood and liver samples were obtained and processed as described in Example O. PMEA-diphosphate in liver and PMEA in plasma were analyzed by HPLC as described for araATP and ara-hypoxanthine, respectively, in Example O.

[9] = tested on: human liver microsomes, p450 isozymes (CYP3A4, CYP1A2, CYP2C9); test: Identification of the p450 isozyme involved in the activation, with isozyme inhibitors (Example F); settings: 0-100 μM p450 isozyme inhibitor, 250 μM 30.1
[10] = in vivo; cited from earlier work
isolated rat hepatocytes [11] = test: Generation of PMEApp in isolated rat hepatocytes (Example V); type: cell-based; settings: Dose 250 μM; 4 h; triplicate
Protocol: Methods: Hepatocytes were prepared from fed rats and incubated as described in Example I. Test compounds were prepared in DMSO and-diluted to 250 μM in the cell suspensions. Reactions were performed in triplicate. After 4 hours of incubation, aliquots of the suspension were removed and processed as described in Example I. Quantitation of PMEApp was performed by anion exchange HPLC also as described in Example I.

CC(C)(C)Cn1c(-c2ccc(P3(=O)OC4CC(O)CC(C4)O3)o2)nc2c(N)ncnc21 (single isomer, unassigned) [Compound 1.3, 6-Amino-8-(5′-hydroxyl-1′,3′ cyclohexyl)phosphonofuranyl-9-neopentyl purine]
peak level of parent 6-Amino-9-neopentyl-8-(2-phosphonofuranyl)purine in liver ([1]; fasted rats, 1 hour): 5 nmoles/g tissue | peak level of parent 6-Amino-9-neopentyl-8-(2-phosphonofuranyl)purine in plasma ([1]; fasted rats, 1 hour): 5.8 µM | persistence of parent compound in plasma and liver ([1]; last time point measured): 4 h | stability in phosphate buffer [2]: fully stable | metabolism / degradation in fresh rat plasma [3]: no evidence of metabolism

Nc1ncnc2c1nc(-c1ccc(P3(=O)OC4CC(O)CC(C4)O3)o1)n2CCc1ccccc1 (centres unmarked) [Compound 1.1, 6-Amino-8-(5′-hydroxyl-1′,3′-cyclohexyl)phosphonofuranyl-9-phenethyl purine]
metabolism / degradation in fresh rat plasma [3]: not degraded; also recorded: no evidence of metabolism

CC(C)(C)Cn1c(-c2ccc(P3(=O)OC4CC(O)CC(C4)O3)o2)nc2c(N)ncnc21 (centres unmarked) [Compound 1.2, 6-Amino-8-(5′-hydroxyl-1′,3′-cyclohexyl)phosphonofuranyl-9-neopentyl purine]
metabolism / degradation in fresh rat plasma [3]: not degraded

Cc1c(Cl)cc2c(nc(-c3ccc(P4(=O)OC5CC(O)CC(C5)O4)o3)n2CC2CC2)c1C (centres unmarked) [Compound 1.4, 6-Chloro-4,5-dimethyl-1-cyclopropylmethyl-2-[1′-hydroxy-3′,5′-cyclohexylphosphono-5-furanyl]benzimidazole]
% inhibition @ 100 μM [4]: 36%

CC(=O)N[C@@H]1COP(=O)(c2ccc(-c3nc4ccc(Cl)cc4n3CC(C)C)o2)O[C@H]1c1ccc([N+](=O)[O-])cc1 (stereo partly drawn) [Compound 2.4, 6-Chloro-1-isobutyl-2-{5-[1S-(4-nitrophenyl)-2R-acetylamino-propan-1,3-yl]phosphono-2-furanyl}benzimidazole]
% inhibition @ 100 μM [4]: 40% | % OBAV Prodrug [5]: 8.7%

CC(C)Cn1c(-c2ccc(P3(=O)OCCC(c4ccccn4)O3)o2)nc2ccc(Cl)cc21 (centres unmarked) [Compound 4.2, 6-Chloro-1-isobutyl-2-{5-[1′-(2-pyridyl)-propan-1′,3′-yl]phosphono-2-furanyl}benzimidazole]
% inhibition @ 100 μM [4]: 68% | % OBAV Prodrug [5]: 8.5%

CC(C)Cn1c(-c2ccc(P3(=O)OCCC(c4ccncc4)O3)o2)nc2ccc(Cl)cc21 (centres unmarked) [Compound 4.3, 6-Chloro-1-isobutyl-2-{5-[1′-(4-pyridyl)-propan-1′,3′-yl]phosphono-2-furanyl}benzimidazole]
% inhibition @ 100 μM [4]: 55% | % OBAV Prodrug [5]: 11.6%

CC(C)Cn1c(-c2ccc(P3(=O)OCCC(c4ccc(F)cc4)O3)o2)nc2ccc(Cl)cc21 (centres unmarked) [Compound 5.2, 6-Chloro-1-isobutyl-2-{5-[1′-(4-fluorophenyl)-propan-1′,3′-yl]phosphono-2-furanyl}benzimidazole]
% OBAV Prodrug [5]: 2.4%

COc1ccc(C2CCOP(=O)(c3ccc(-c4nc5ccc(Cl)cc5n4CC(C)C)o3)O2)cc1Br (centres unmarked) [Compound 6.1, 6-Chloro-1-isobutyl-2-{5-[1′-(3-bromo-4-methoxyphenyl)-propan-1′,3′-yl]phosphono-2-furanyl}benzimidazole]
% inhibition @ 100 μM [4]: 11%

CC(=O)OCC1COP(=O)(c2ccc(-c3nc4ccc(Cl)cc4n3CC(C)C)o2)OC1 (centres unmarked) [Compound 7.2, 6-Chloro-1-isobutyl-2-{5-[2′-(acetoxymethyl)-propan-1′,3′-yl]phosphono-2-furanyl}benzimidazole]
IC50 [4]: 90 µM | % OBAV Prodrug [5]: 12.5% | peak intrahepatocyte levels of parent compound (isolated rat hepatocytes [6]): ~500 nmoles/g cells

COC(=O)OCC1COP(=O)(c2ccc(-c3nc4ccc(Cl)cc4n3CC(C)C)o2)OC1 (centres unmarked) [Compound 7.3, 6-Chloro-1-isobutyl-2-{5-[2′-(methoxycarbonytoxymethyl)-propan-1′,3′-yl]phosphono-2-furanyl}benzimidazole]
% inhibition @ 100 μM [4]: 61% | % OBAV Prodrug [5]: 14.1%

CCc1cc(F)c(N)c2nc(-c3ccc(P4(=O)OCC(COC(C)=O)CO4)o3)n(CC(C)C)c12 (centres unmarked) [Compound 7.4, 4-Amino-5-fluoro-7-ethyl-1-isobutyl-2-{5-[2′-(acetoxymethyl)-propan-1′,3′-yl]phosphono-2-furanyl}benzimidazole]
IC50 [4]: 25 µM

Nc1ncnc2c1ncn2CCOCP1(=O)OCCC(c2ccncc2)O1 (centres unmarked) [Compound 28.4, 9-[2-(1-(4-Pyridyl)-1,3-propylphosphonomethoxy)ethyl]adenine]
PMEA in the blood or urine [7]: no detectable PMEA | PMEA-diphosphate levels in liver [8]: readily detectable levels; also recorded: high PMEA disphosphate levels

CC(=O)N1CCN(c2ccc(OCC3COC(Cn4ccnc4)(c4ccc(Cl)cc4Cl)O3)cc2)CC1 (centres unmarked) [Ketoconazole]
inhibition of the formation of ara-AMP from 30.1 [9]: dose-dependent

Nc1ncnc2c1ncn2[C@@H]1O[C@H](CO)[C@@H](O)[C@@H]1O [araA, 9-b-D-arabinofuranosyladenine]
oral bioavailability [10]: low oral bioavailability

CC(C)(C)C(=O)OCOP(=O)(COCCn1cnc2c(N)ncnc21)OCOC(=O)C(C)(C)C [bisPOM-PMEA, reference compound]
PMEApp (isolated rat hepatocytes [11]): 200 ± 33 nmol/g | Renal excretion of PMEA, of the administered dose [7]: 54% | Renal excretion of PMEA, of the administered dose ([7]; listed as bis POM prodrug of PMEA): high levels of PMEA in the urine | PMEA-diphosphate levels in liver [8]: readily detectable levels

Cc1nc2c([nH]1)c(=O)n(C)c(=O)n2Cc1ccco1 [furafylline]
inhibition of the formation of ara-AMP from 30.1 [9]: no significant inhibition

Nc1ccc(S(=O)(=O)Nc2ccnn2-c2ccccc2)cc1 [sulfaphenazole]
inhibition of the formation of ara-AMP from 30.1 [9]: no significant inhibition
